Series [1] has as its system Blood. The series is described as follows: Steady sate drug level in blood of mdr1a/b knockout mouse by HPLC analysis. It counts as ADME, tissue-based. To be noted: read-out: Css.
A short description of series [2]: Blood clearance in mdr1a/b knockout mouse by HPLC analysis. It counts as ADME, organism-based.
The subject of series [3] is Brain. Briefly: Steady sate drug level in brain of mdr1a/b knockout mouse by HPLC analysis. The class given is ADME, tissue-based. To be noted: in vivo, read-out: Css.
Series [4] has as its system Blood. The series is described as follows: Steady sate drug level in blood of wild type mouse expressing mdr1a/b by HPLC analysis. It counts as ADME, tissue-based.
Series [5] concerns Brain. Briefly: Steady sate drug level in brain of wild type mouse expressing mdr1a/b by HPLC analysis. The conditions noted are these: in vivo. It counts as ADME, tissue-based.
The nature of series [6]: Ratio of steady sate drug level in brain to blood of mdr1a/b knockout mouse. The class given is ADME, tissue-based.
The nature of series [7]: Bioavailability in rat. It counts as ADME, organism-based. The conditions noted are these: in vivo.
Series [8] deals with T1, Beta-secretase 1 (Homo sapiens, UniProt P56817). Briefly: Inhibition of BACE1.
Series [9] is described as follows: Ratio of steady sate drug level in brain to blood of wild type mouse expressing mdr1a/b. It counts as ADME, tissue-based.
The nature of series [10]: Lipophilicity, log D at pH 7.4. To be noted: buffer.
Series [11] is described as follows: Blood clearance in wild type mouse expressing mdr1a/b by HPLC analysis. It counts as ADME, organism-based.
For series [12], the target named is T1, Beta-secretase 1. The series is described as follows: Inhibition of BACE1 in human SHSY5Y cells expressing wild type APP assessed as inhibition of intracellular amyloid beta-40 secretion. It counts as cell-based, SH-SY5Y.
The target of another series is T2, Beta-secretase 2 (Homo sapiens, UniProt Q9Y5Z0).
T2 sequence (Q9Y5Z0 whole entry): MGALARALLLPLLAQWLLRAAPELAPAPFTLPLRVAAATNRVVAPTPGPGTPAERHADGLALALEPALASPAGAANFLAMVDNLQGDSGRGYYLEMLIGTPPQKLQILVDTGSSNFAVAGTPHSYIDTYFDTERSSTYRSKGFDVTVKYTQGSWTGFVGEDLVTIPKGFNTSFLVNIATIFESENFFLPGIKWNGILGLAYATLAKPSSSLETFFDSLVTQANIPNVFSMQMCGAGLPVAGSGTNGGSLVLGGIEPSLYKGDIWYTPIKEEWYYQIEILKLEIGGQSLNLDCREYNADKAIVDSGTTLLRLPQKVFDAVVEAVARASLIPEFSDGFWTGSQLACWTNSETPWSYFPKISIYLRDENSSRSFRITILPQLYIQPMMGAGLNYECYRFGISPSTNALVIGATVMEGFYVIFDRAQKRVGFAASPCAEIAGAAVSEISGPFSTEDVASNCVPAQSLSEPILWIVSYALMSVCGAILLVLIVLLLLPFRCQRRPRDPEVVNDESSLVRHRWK
Briefly: Inhibition of BACE2.

The target in the next series is Cathepsin D (Homo sapiens, UniProt P07339). Briefly: Inhibition of cathepsin-D.
Series [13] in a line: Blood clearance in rat at 1 mg/kg/hr, iv. The class given is ADME, organism-based. On the set-up: route intravenous.
Series [14] can be described thus: Half life in dog at 1 mg/kg/hr, iv. It counts as ADME, organism-based, Canis lupus familiaris. On the set-up: route intravenous. To be noted: in vivo.
Series [15] is described as follows: Volume of distribution in rat at 1 mg/kg/hr, iv. The conditions noted are these: in vivo. It counts as ADME, organism-based. On the set-up: route intravenous.
A short description of series [16]: Volume of distribution in dog at 1 mg/kg/hr, iv. The class given is ADME, organism-based, Canis lupus familiaris. More on the design: route intravenous. The conditions noted are these: in vivo.
Series [17] in a line: Bioavailability in dog. It counts as ADME, organism-based, Canis lupus familiaris. To be noted: in vivo.
The nature of series [18]: Cmax in dog at 10 mg/kg. The class given is ADME, organism-based, Canis lupus familiaris. On the set-up: dose 10 mg/kg. To be noted: in vivo.
A short description of series [19]: Half life in rat at 1 mg/kg/hr, iv. It counts as ADME, organism-based. On the set-up: route intravenous. To be noted: in vivo.
Series [20] in a line: Cmax in rat at 10 mg/kg. The class given is ADME, organism-based. More on the design: dose 10 mg/kg. The conditions noted are these: in vivo.
A short description of series [21]: Blood clearance in dog at 1 mg/kg/hr, iv. The class given is ADME, organism-based, Canis lupus familiaris. On the set-up: route intravenous.

Consider 24 compounds from ChEMBL document CHEMBL1158411, “Second generation of BACE-1 inhibitors part 3: Towards non hydroxyethylamine transition state mimetics” (Bioorg Med Chem Lett, 2009).

Molecules are shown by their SMILES.

T1 sequence (P56817 whole entry): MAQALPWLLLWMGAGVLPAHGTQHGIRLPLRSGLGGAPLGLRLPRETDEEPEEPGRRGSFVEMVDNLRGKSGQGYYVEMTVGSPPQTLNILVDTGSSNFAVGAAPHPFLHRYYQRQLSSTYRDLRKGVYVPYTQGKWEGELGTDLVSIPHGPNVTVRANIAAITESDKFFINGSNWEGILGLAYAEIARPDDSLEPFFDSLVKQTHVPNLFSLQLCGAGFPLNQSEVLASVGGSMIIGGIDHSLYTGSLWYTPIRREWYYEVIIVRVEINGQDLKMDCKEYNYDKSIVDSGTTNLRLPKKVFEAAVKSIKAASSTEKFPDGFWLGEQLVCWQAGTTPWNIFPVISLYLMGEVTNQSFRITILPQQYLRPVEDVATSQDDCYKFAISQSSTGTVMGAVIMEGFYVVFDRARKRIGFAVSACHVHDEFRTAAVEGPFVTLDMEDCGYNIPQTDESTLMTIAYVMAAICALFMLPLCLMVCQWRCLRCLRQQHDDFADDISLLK
Cathepsin D, sequence (P07339 65-162 limits assumed): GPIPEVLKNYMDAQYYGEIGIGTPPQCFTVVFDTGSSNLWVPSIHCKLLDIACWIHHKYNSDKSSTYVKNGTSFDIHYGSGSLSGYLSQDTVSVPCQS
Cathepsin D, sequence (P07339 169-412 limits assumed): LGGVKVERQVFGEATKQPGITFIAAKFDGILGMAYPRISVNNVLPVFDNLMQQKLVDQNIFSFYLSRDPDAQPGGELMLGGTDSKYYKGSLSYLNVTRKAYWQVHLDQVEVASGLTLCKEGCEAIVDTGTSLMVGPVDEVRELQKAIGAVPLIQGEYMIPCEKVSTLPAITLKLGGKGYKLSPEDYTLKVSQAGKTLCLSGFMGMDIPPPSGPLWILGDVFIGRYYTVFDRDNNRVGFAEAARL

Consider `CCc1cn2c3c(cc(C(=O)N[C@@H](Cc4ccccc4)[C@H](O)CNC4CC4)cc13)N(C)S(=O)(=O)CC2`, for which the concentration with Blood [1] was found to be 397 nM; in the series with Brain [3] it was 989 nM. Besides, the clearance (commonly a measure of how efficiently the substance is removed, as volume per time) in series [2] was 62 mL/min/kg; in series [11] it was 72 mL/min/kg. The figures for the Css in the series on Blood [4] and in the series with Brain [5] were 490 nM and 61 nM, respectively. For the same compound, the Kp (as a rule, tissue or fluid exposure divided by exposure in the circulation) in series [6] is 2.41; in series [9], 0.13. In series [7], the bioavailability (usually dose-corrected exposure relative to a reference, in per cent) was found to be 17%. The IC50 (commonly the concentration needed to halve the response being measured) at Beta-secretase 1 [8] came out at 11 nM. Further, the logD (commonly the decadic logarithm of the distribution of all forms, ionised or not, between an organic phase and buffer at a given pH) in [10] was 2.17.
Turning to `CCNC[C@@H](O)[C@H](Cc1ccccc1)NC(=O)c1cc2c3c(c1)c(CC)cn3CCS(=O)(=O)N2C`, the IC50 on Beta-secretase 1 [12] amounted to 262 nM; at Beta-secretase 1 [8], 48 nM; against Beta-secretase 2, 1140 nM; against Cathepsin D, 36300 nM.
`CCn1cc2c3c(cc(C(=O)N[C@@H](Cc4ccccc4)[C@H](O)CNCC(F)F)cc31)N(C)S(=O)(=O)CC2`: the IC50 at Beta-secretase 1 [12] turned out to be 51 nM; on Beta-secretase 1 [8], 20 nM.
The matching figures for `CCn1cc2c3c(cc(C(=O)N[C@@H](Cc4ccccc4)[C@H](O)CNCC(F)(F)F)cc31)N(C)S(=O)(=O)CC2`: 2110 nM and 79 nM.
For `CCNC[C@@H](O)[C@H](Cc1ccccc1)NC(=O)c1cc2c3c(cn(CC)c3c1)CCS(=O)(=O)N2C`, the IC50 turned out to be 73 nM on Beta-secretase 1 [12], 23 nM on Beta-secretase 1 [8], 2170 nM on Beta-secretase 2 and 19500 nM on Cathepsin D. This compound also gave a logD in [10] of 0.07.
For `CCn1cc2c3c(cc(C(=O)N[C@@H](Cc4ccccc4)[C@H](O)CNC4CC4)cc31)N(C)S(=O)(=O)CC2`, the IC50 against Beta-secretase 2 stood at 370 nM; at Cathepsin D, 6790 nM. The compound further registered a logD in [10] of 1.79.
On to `CCc1cn2c3c(cc(C(=O)N[C@@H](Cc4ccccc4)[C@H](O)CNCc4cccc(C(F)(F)F)c4)cc13)OS(=O)(=O)CC2`, for which the results for the IC50 against Beta-secretase 1 [8], at Beta-secretase 2 and against Cathepsin D were 8 nM, 260 nM and 2160 nM, respectively.
For the compound `C#CCNC[C@@H](O)[C@H](Cc1ccccc1)NC(=O)c1cc2c3c(cn(CC)c3c1)CCS(=O)(=O)N2C`, the IC50 at Beta-secretase 1 [12] was determined as 26 nM; on Beta-secretase 1 [8], 11 nM; against Beta-secretase 2, 1490 nM; at Cathepsin D, 34600 nM.
With `CCc1cn2c3c(cc(C(=O)N[C@@H](Cc4ccccc4)[C@H](O)CNC4CC4)cc13)OS(=O)(=O)CC2`, the IC50 against Beta-secretase 1 [8] amounted to 250 nM; against Beta-secretase 2 it was 1150 nM; on Cathepsin D, 2970 nM.
With `CC[C@@H](C)NC[C@@H](O)[C@H](Cc1ccccc1)NC(=O)c1cc2c3c(cn(CC)c3c1)CCS(=O)(=O)N2C`, the IC50 is 64 nM on Beta-secretase 1 [12], 10 nM against Beta-secretase 1 [8], 420 nM against Beta-secretase 2 and 1190 nM on Cathepsin D.
As to `CCc1cn2c3c(cc(C(=O)N[C@@H](Cc4ccccc4)[C@H](O)CN[C@H](C)CC)cc13)N(C)S(=O)(=O)CC2`, the IC50 on Beta-secretase 1 [12] stood at 144 nM; against Beta-secretase 1 [8], 22 nM; against Beta-secretase 2, 430 nM; against Cathepsin D, 5430 nM. Further, the logD in [10] was 1.52.
For the compound `C#CCNC[C@@H](O)[C@H](Cc1ccccc1)NC(=O)c1cc2c3c(c1)c(CC)cn3CCS(=O)(=O)O2`, the IC50 at Beta-secretase 1 [8] turned out to be 360 nM; on Beta-secretase 2, 3200 nM; against Cathepsin D, 15100 nM.
Consider `CCCNC[C@@H](O)[C@H](Cc1ccccc1)NC(=O)c1cc2c3c(cn(CC)c3c1)CCS(=O)(=O)N2C`, for which the IC50 was 29 nM at Beta-secretase 1 [12] and 8 nM against Beta-secretase 1 [8].
On to `CCn1cc2c3c(cc(C(=O)N[C@@H](Cc4ccccc4)C(=O)CNC4CCOCC4)cc31)N(C)S(=O)(=O)CC2`, for which the IC50 on Beta-secretase 1 [12] turned out to be 48 nM.
For `CCn1cc2c3c(cc(C(=O)N[C@@H](Cc4ccccc4)[C@H](O)CNC4CCOCC4)cc31)N(C)S(=O)(=O)CC2`, the IC50 on Beta-secretase 1 [12] worked out at 27 nM; against Beta-secretase 1 [8], 5 nM; against Beta-secretase 2, 590 nM; at Cathepsin D, 2110 nM. Moreover, in series [10], the logD was found to be 0.9.
For the compound `CCc1cn2c3c(cc(C(=O)N[C@@H](Cc4ccccc4)[C@H](O)CNCC4CCOCC4)cc13)OS(=O)(=O)CC2`, the figures for the IC50 against Beta-secretase 1 [8], against Beta-secretase 2 and against Cathepsin D were 86 nM, 450 nM and 130 nM, respectively.
Turning to `CCc1cn2c3c(cc(C(=O)N[C@@H](Cc4ccccc4)[C@H](O)CNCCC(F)(F)F)cc13)N(C)S(=O)(=O)CC2`, the IC50 was 8 nM at Beta-secretase 1 [12], 7 nM on Beta-secretase 1 [8], 28 nM against Beta-secretase 2 and 890 nM against Cathepsin D. For the same compound, the logD in series [10] came out at 2.8.
For the compound `CCn1cc2c3c(cc(C(=O)N[C@@H](Cc4ccccc4)[C@H](O)CNc4ccccc4)cc31)N(C)S(=O)(=O)CC2`, the IC50 at Beta-secretase 1 [12] worked out at 739 nM; against Beta-secretase 1 [8] it was 5 nM.
For the compound `CCc1cn2c3c(cc(C(=O)N[C@@H](Cc4ccccc4)[C@H](O)CNC4CCOCC4)cc13)N(C)S(=O)(=O)CC2`, the IC50 at Beta-secretase 1 [12] came out at 90 nM; against Beta-secretase 1 [8] it was 9 nM; against Beta-secretase 2 it was 210 nM; against Cathepsin D it was 60 nM. The logD in series [10] worked out at 1.31.
For the compound `C#CCNC[C@@H](O)[C@H](Cc1ccccc1)NC(=O)c1cc2c3c(c1)c(CC)cn3CCS(=O)(=O)N2C`, the IC50 was determined as 118 nM at Beta-secretase 1 [12], 73 nM against Beta-secretase 1 [8], 3100 nM against Beta-secretase 2 and 75500 nM against Cathepsin D.
For `CCn1cc2c3c(cc(C(=O)N[C@@H](Cc4ccccc4)[C@H](O)CNCCF)cc31)N(C)S(=O)(=O)CC2`, the IC50 at Beta-secretase 1 [12] turned out to be 245 nM; at Beta-secretase 1 [8], 40 nM.
The matching figures for `CCc1cn2c3c(cc(C(=O)N[C@@H](Cc4ccccc4)[C@H](O)CNCCF)cc13)N(C)S(=O)(=O)CC2`: 209 nM and 50 nM.
The matching figures for `CCn1cc2c3c(cc(C(=O)N[C@@H](Cc4ccccc4)[C@H](O)CNCC(F)(F)C(F)(F)F)cc31)N(C)S(=O)(=O)CC2`: 4430 nM and 32 nM.
As to `CCn1cc2c3c(cc(C(=O)N[C@@H](Cc4ccccc4)[C@H](O)CNCCC(F)(F)F)cc31)N(C)S(=O)(=O)CC2`, the clearance in series [13] turned out to be 57 mL/min/kg; in [2], 94 mL/min/kg; in series [11] it was 85 mL/min/kg; in series [21] it was 14 mL/min/kg. The half-life (usually the time needed for the level to fall by half in the phase considered) in series [14] was 6.8 h; in series [19] it was 3.3 h. For the same compound, the concentration in the series on Blood [1] came to 339 nM; in the series on Brain [3], 335 nM. Further, the results for the Vd in series [15] and in [16] were 11 L/kg and 4.8 L/kg, respectively. The bioavailability amounted to 52% in series [17] and 13% in [7]. For the same compound, the Cmax – broadly, the highest concentration seen after dosing – in series [18] amounted to 3590 nM; in series [20], 88 nM. Also, the Css in the series with Blood [4] is 381 nM; with Brain [5], 40 nM. The Kp in [6] amounted to 0.99; in [9], 0.1. The concentration for half-maximal inhibition (IC50) against Beta-secretase 2 was found to be 75 nM; against Cathepsin D, 570 nM. In series [10], the logD amounted to 2.59.
